Data as given in article PMC12775434, “Ultra-large virtual screening unveils potent agonists of the neuromodulatory orphan receptor GPR139” (Nature Communications, 2025).
Values joined by “and” are separate entries in the source; they are usually repeats but may differ in a detail not shown here. Equal entries are not always repeated. Where two headings read alike, the source gives them in different places.

Biological target: T1, GPR139 (Homo sapiens, UniProt Q6DWJ6)
T1 sequence (Q6DWJ6 1-353): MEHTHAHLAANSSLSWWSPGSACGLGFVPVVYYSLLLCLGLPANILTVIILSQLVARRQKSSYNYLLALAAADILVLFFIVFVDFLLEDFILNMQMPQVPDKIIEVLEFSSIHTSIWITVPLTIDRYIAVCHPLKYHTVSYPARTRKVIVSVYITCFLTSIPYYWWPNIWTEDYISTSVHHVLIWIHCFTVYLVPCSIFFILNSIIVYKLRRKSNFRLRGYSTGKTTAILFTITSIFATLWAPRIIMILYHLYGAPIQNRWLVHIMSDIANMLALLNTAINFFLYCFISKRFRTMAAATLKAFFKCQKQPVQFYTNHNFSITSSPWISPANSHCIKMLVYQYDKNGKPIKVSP
Assay: Ca2+ mobilization assay, agonist mode, stable GPR139-CHOk1 cell line
Format: cell-based
Conditions: for Emax: normalized to Lundbeck Cmp 1a
Procedure, shortened: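 Agonist activity of compounds is assessed in stably transfected CHO-K1 cells using the calcium dye Fluo-4 at 37 °C in HEPES-buffered HBSS (pH 7.4). Efficacy is expressed relative to the reference agonist Lundbeck Cmp 1a, set as 100%.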

[1] = Supplementary Table 7, read-out: Emax (%), Ca2+ mobilization
[2] = log [Compound] M -8.5, individual replicates
[3] = log [Compound] M -9.0, individual replicates
[4] = log [Compound] M -12.0, individual replicates
[5] = log [compound] M -4.5, individual replicates
[6] = log [compound] M -5.0, individual replicates
[7] = log [compound] M -5.5, individual replicates
[8] = log [compound] M -6.0, individual replicates
[9] = log [compound] M -6.5, individual replicates
[10] = log [compound] M -7.0, individual replicates
[11] = log [compound] M -7.5, individual replicates
[12] = log [compound] M -8.0, individual replicates
[13] = GPR139-CHOk1, read-out: EC50, Ca2+ mobilization

SMILES: Cc1cscc1-c1nc(CC(=O)N[C@H](C)c2ccccc2)no1 [1.1(R)]
- EC50 (Supplementary Table 7, enantiopure compounds, read-out: pEC50, Ca2+ mobilization (converted)): 316 nM
- Emax [1]: 112 ± 1%
- Ca2+ signal (% of Cmp 1a) [2]: 12 % of Cmp 1a and 7 % of Cmp 1a and 3.33 % of Cmp 1a
- Ca2+ signal (% of Cmp 1a) [3]: 9 % of Cmp 1a and 0.333 % of Cmp 1a and -1.33 % of Cmp 1a
- Ca2+ signal (% of Cmp 1a) [4]: 0 % of Cmp 1a
- Ca2+ signal (% of Cmp 1a) [5]: 101 % of Cmp 1a and 112 % of Cmp 1a and 116 % of Cmp 1a
- Ca2+ signal (% of Cmp 1a) [6]: 100 % of Cmp 1a and 104 % of Cmp 1a and 97 % of Cmp 1a
- Ca2+ signal (% of Cmp 1a) [7]: 97 % of Cmp 1a and 88 % of Cmp 1a and 90 % of Cmp 1a
- Ca2+ signal (% of Cmp 1a) [8]: 74 % of Cmp 1a and 79 % of Cmp 1a and 77 % of Cmp 1a
- Ca2+ signal (% of Cmp 1a) [9]: 50 % of Cmp 1a and 51 % of Cmp 1a and 65 % of Cmp 1a
- Ca2+ signal (% of Cmp 1a) [10]: 32 % of Cmp 1a and 25 % of Cmp 1a and 37 % of Cmp 1a
- Ca2+ signal (% of Cmp 1a) [11]: 15 % of Cmp 1a and 13 % of Cmp 1a and 16 % of Cmp 1a
- Ca2+ signal (% of Cmp 1a) [12]: 9 % of Cmp 1a and 4.67 % of Cmp 1a and 8 % of Cmp 1a

SMILES: Cc1cscc1-c1nc(CC(=O)N[C@@H](C)c2ccccc2)no1 [1.1(S)]
- EC50 [13]: 8 nM
- Emax [1]: 121 ± 11%
- Ca2+ signal (% of Cmp 1a) [2]: 28 % of Cmp 1a and 50 % of Cmp 1a and 51 % of Cmp 1a
- Ca2+ signal (% of Cmp 1a) [3]: 24 % of Cmp 1a and 31 % of Cmp 1a and 22 % of Cmp 1a
- Ca2+ signal (% of Cmp 1a) [4]: 0 % of Cmp 1a
- Ca2+ signal (% of Cmp 1a) [5]: 102 % of Cmp 1a and 114 % of Cmp 1a and 136 % of Cmp 1a
- Ca2+ signal (% of Cmp 1a) [6]: 108 % of Cmp 1a and 117 % of Cmp 1a and 136 % of Cmp 1a
- Ca2+ signal (% of Cmp 1a) [7]: 90 % of Cmp 1a and 125 % of Cmp 1a and 141 % of Cmp 1a
- Ca2+ signal (% of Cmp 1a) [8]: 102 % of Cmp 1a and 120 % of Cmp 1a and 136 % of Cmp 1a
- Ca2+ signal (% of Cmp 1a) [9]: 96 % of Cmp 1a and 104 % of Cmp 1a and 131 % of Cmp 1a
- Ca2+ signal (% of Cmp 1a) [10]: 104 % of Cmp 1a and 95 % of Cmp 1a and 127 % of Cmp 1a
- Ca2+ signal (% of Cmp 1a) [11]: 92 % of Cmp 1a and 77 % of Cmp 1a and 113 % of Cmp 1a
- Ca2+ signal (% of Cmp 1a) [12]: 61 % of Cmp 1a and 62 % of Cmp 1a and 73 % of Cmp 1a

SMILES: Cc1cc(-c2nc(CC(=O)NC(C)c3ccccc3)no2)sc1C (stereo not shown) [Compound 1, CC(NC(=O)CC1=NOC(=N1)C2=CC(C)=C(C)S2)C=3C=CC=CC3]
- Ca2+ signal (% of Cmp 1a) (0.1 µM, individual replicates (Supplementary Figure 3)): 36.2 % of Cmp 1a and 58.0 % of Cmp 1a
- Ca2+ signal (% of Cmp 1a) (1 µM, individual replicates (Supplementary Figure 3)): 74.5 % of Cmp 1a and 72.2 % of Cmp 1a
- Ca2+ signal (% of Cmp 1a) (10 µM, individual replicates (Supplementary Figure 3)): 88.7 % of Cmp 1a and 74.0 % of Cmp 1a
- Ca2+ signal (% of Cmp 1a) (Agonist mode, individual replicates (Supplementary Figure 1)): 94 % of Cmp 1a (2×) and 99 % of Cmp 1a
- EC50 [13]: 160 nM
- Emax (Supplementary Table 2, mean ± SEM, read-out: Emax (%) Ca2+): 94 ± 3%
- Ca2+ signal (% of Cmp 1a) (log [Compound] M -4.5, replicate experiments): 84 % of Cmp 1a and 91 % of Cmp 1a and 93 % of Cmp 1a
- Ca2+ signal (% of Cmp 1a) (log [Compound] M -5.0, replicate experiments): 91 % of Cmp 1a and 83 % of Cmp 1a and 90 % of Cmp 1a
- Ca2+ signal (% of Cmp 1a) (log [Compound] M -5.5, replicate experiments): 79 % of Cmp 1a
- Ca2+ signal (% of Cmp 1a) (log [Compound] M -6.0, replicate experiments): 79 % of Cmp 1a and 67 % of Cmp 1a and 70 % of Cmp 1a
- Ca2+ signal (% of Cmp 1a) (log [Compound] M -6.5, replicate experiments): 57 % of Cmp 1a and 52 % of Cmp 1a and 53 % of Cmp 1a
- Ca2+ signal (% of Cmp 1a) (log [Compound] M -7.0, replicate experiments): 45 % of Cmp 1a and 26 % of Cmp 1a and 43 % of Cmp 1a
- Ca2+ signal (% of Cmp 1a) (log [Compound] M -7.5, replicate experiments): 27 % of Cmp 1a and 24 % of Cmp 1a and 16 % of Cmp 1a
- Ca2+ signal (% of Cmp 1a) (log [Compound] M -8.0, replicate experiments): 10 % of Cmp 1a and 2 % of Cmp 1a and 7.42 % of Cmp 1a
- Ca2+ signal (% of Cmp 1a) (log [Compound] M -8.5, replicate experiments): 1.62 % of Cmp 1a and 6 % of Cmp 1a and 3.64 % of Cmp 1a
- Ca2+ signal (% of Cmp 1a) (log [Compound] M -9.0, replicate experiments): 6 % of Cmp 1a and -1.9 % of Cmp 1a and 3.54 % of Cmp 1a
- Ca2+ signal (% of Cmp 1a) (primary screen, 10 µM compound, agonist mode, three columns = independent experiments): 94 % of Cmp 1a and 99 % of Cmp 1a
